# Tested on: bovine embryos
# Assay: Example 9: L-NAME (1 or 1000 nM) added to mBECM containing serum and Hb, pre-hatching development
# Type: cell-based
# Parameters: key to Least square mean of embryos developed to 16-cell / Least square mean of embryos developed to Blastocyst / Least square mean of embryos developed to 2-cell / Least square mean of embryos developed to 8-cell / Least square mean of embryos developed to Morula: fraction developed; each embryo scored 1 = developed, 0 = not developed
# Settings: for Number of embryos developed to 2-cell / Number of embryos developed to 8-cell / Number of embryos developed to 16-cell / Number of embryos developed to Morula / Number of embryos developed to Blastocyst: 96 embryos; for Number of embryos developed to 2-cell / Least square mean of embryos developed to 2-cell: 48 h; for Number of embryos developed to 8-cell / Least square mean of embryos developed to 8-cell: 60 h; for Number of embryos developed to 16-cell / Least square mean of embryos developed to 16-cell: 120 h; for Number of embryos developed to Morula / Least square mean of embryos developed to Morula: 144 h; for Number of embryos developed to Blastocyst / Least square mean of embryos developed to Blastocyst: 192 h
# Protocol: The basic medium used for maturation of oocytes was tissue culture medium (TCM)-199 with Earle's salts, buffered with 25 mM HEPES (Gibco BRL, Grand Island, N.Y.) and supplemented with 10% (v/v) heat-inactivated fetal bovine serum (FBS; Hyclone Laboratories, Logan, Utah), 1 μg/ml estradiol-17β (NOBL Laboratories, Sioux Center, Iowa), 3 μg/ml bovine FSH (NOBL Laboratories), 6 μg/ml bovine LH (NOBL Laboratories), and 25 μg/ml gentamycin (Sigma Chemical Co., St. Louis, Mo.). The basic medium used for treatment of spermatozoa and fertilization of oocytes was a modified Tyrode's medium (J. Parrish et al., Capacitation of bovine sperm by heparin. Biol. Reprod. 38:1171-1180 (1988)), supplemented with 0.25 mM sodium pyruvate (Gibco BRL), 6 mg/ml fatty acid (FA)-free BSA (No. A-6003, Sigma), 15 μg/ml calcium heparin from porcine intestinal mucosa (183 USP/mg; H-8398, Sigma), and 25 μg/ml gentamycin. Modified bovine embryo culture medium (mBECM) containing 10 μM β-mercaptoethanol was used for culture of embryos, as described in J. Lim et al., “Roles of growth factors in the development of bovine embryos fertilized in vitro and cultured singly in a defined medium,” Reprod. Fertil. Dev., 8:1199-1205 (1996). mBECM supplemented with 10% (v/v) FBS was used for co-culturing inseminated oocytes with CGC. Osmolarity of the medium was maintained within the range of 265-290 mOsm.
# All cumulus-oocyte complexes (COC) were collected in Madison, Wis. (BOMED, Inc.) and were shipped in 2 ml of maturation medium in a battery powered incubator via overnight express mail service. Oocytes matured during transit and arrived within 24 h after exposure to maturation medium, pre-equilibrated at 39° C. in 5% CO2 in air. At 22 to 24 h after exposure to the medium, the COCs were inseminated in vitro as described in J. Lim et al., “Intracytoplasmic glutathione concentration and the role of β-mercaptoethanol in preimplantation development of bovine embryos,” Theriogenology, 46:429-439 (1996). At 18 h post-insemination, COCs were cultured in groups (28-40 embryos) in a 4-well multidish (Nunc, Roskilde, Denmark) containing 0.8-ml of mBECM. Embryos were dislodged from CGC at 36 to 48 h post-insemination.
# In Example 9, IVF embryos were cultured in MBECM supplemented as follows: 1) no addition (control), 2) Hb (1 μg/ml), 3) Hb plus L-NAME (1 nM), and 4) Hb plus L-NAME (1000 nM). Embryonic development was evaluated up to 192 h post-insemination. A total of 384 oocytes were inseminated, and were randomly and equally allotted to 4 replicates.
# Embryos developed to the 2-cell, 8-cell, 16-cell, morula, and blastocyst stages at the pertinent observation times were individually scored ‘1’ (developed). Embryos that had not developed to these stages at the same times were scored ‘0’ (non-developed). Sums of the scores at each stage of development were evaluated by analysis of variance using a general linear model (PROC-GLM) in the SAS statistical programming package (1991). In Example 8, the combined effects of Hb addition and month of oocyte collection were first examined in a 2×7 factorial arrangement. Overall differences in embryonic development in Hb-free and Hb-containing culture systems were further evaluated. […] Differences were regarded as statistically significant where P values were less than 0.05.
smiles,measurement,setting,value
"COC(=O)[C@@H](N)CCCN=C(N)N[N+](=O)[O-].Cl [L-NAME, N^G-Lω-nitro-L-arginine methyl ester hydrochloride]",Number of embryos developed to 2-cell,L-NAME 1 nM with Hb 1 μg/ml,78
same,Number of embryos developed to 8-cell,L-NAME 1 nM with Hb 1 μg/ml,60
same,Number of embryos developed to 16-cell,L-NAME 1 nM with Hb 1 μg/ml,46
same,Number of embryos developed to Morula,L-NAME 1 nM with Hb 1 μg/ml,38
same,Number of embryos developed to Blastocyst,L-NAME 1 nM with Hb 1 μg/ml,26
same,Least square mean of embryos developed to 2-cell,L-NAME 1 nM with Hb 1 μg/ml,0.813
same,Least square mean of embryos developed to 8-cell,L-NAME 1 nM with Hb 1 μg/ml,0.625
same,Least square mean of embryos developed to 16-cell,L-NAME 1 nM with Hb 1 μg/ml,0.479
same,Least square mean of embryos developed to Morula,L-NAME 1 nM with Hb 1 μg/ml,0.396
same,Least square mean of embryos developed to Blastocyst,L-NAME 1 nM with Hb 1 μg/ml,0.271
same,Number of embryos developed to 2-cell,L-NAME 1000 nM with Hb 1 μg/ml,70
same,Number of embryos developed to 8-cell,L-NAME 1000 nM with Hb 1 μg/ml,50
same,Number of embryos developed to 16-cell,L-NAME 1000 nM with Hb 1 μg/ml,40
same,Number of embryos developed to Morula,L-NAME 1000 nM with Hb 1 μg/ml,28
same,Number of embryos developed to Blastocyst,L-NAME 1000 nM with Hb 1 μg/ml,19
same,Least square mean of embryos developed to 2-cell,L-NAME 1000 nM with Hb 1 μg/ml,0.729
same,Least square mean of embryos developed to 8-cell,L-NAME 1000 nM with Hb 1 μg/ml,0.521
same,Least square mean of embryos developed to 16-cell,L-NAME 1000 nM with Hb 1 μg/ml,0.416
same,Least square mean of embryos developed to Morula,L-NAME 1000 nM with Hb 1 μg/ml,0.292
same,Least square mean of embryos developed to Blastocyst,L-NAME 1000 nM with Hb 1 μg/ml,0.198
same,further stimulation of embryonic development to the blastocyst stage,"L-NAME added to culture medium containing Hb, P>0.07",did not further stimulate

# From US6864086B2, “Nitric oxide-scavenging system for culturing oocytes, embryos, or other cells” (Board of Supervisors of Louisiana State University and …, priority 1998, dated 2005)
